# Laboratory results from US10602743B2, “Method of inducing drought/salt tolerance using Bacillus megaterium” (Marrone Bio Innovations, Inc., priority 2012, dated 2020).
# Where a name gives a salt, the structure may show the parent alone.
# Tested on: Bacillus megaterium strain H491
# Test: Chemical sensitivity, Biolog Phenotypic Microarray
# Format: cell-based
# Conditions: not given
row,Compound,H491 susceptible to compound
1,"O=C([O-])c1ccccc1O.[Na+] [Salicylate, sodium]",susceptible
2,O=NO [Sodium Nitrite],susceptible

# Same assay, conditions: Biolog Phenotypic Microarray, 25° C.
row,Compound,H491 susceptible to compound
1,CCCCCCCC[N+](C)(CCCCCCCC)CCCCCCCC.[Cl-] [Methyltrioctylammonium chloride],susceptible
2,CCOc1ccc2ccccc2c1C(=O)N[C@@H]1C(=O)N2[C@@H]1SC(C)(C)[C@@H]2C(=O)O [Nafcillin],susceptible
3,CCn1cc(C(=O)O)c(=O)c2ccc(C)nc21 [Nalidixic acid],susceptible
4,CO[C@@H]1[C@@H](OC(N)=O)[C@@H](O)[C@H](Oc2ccc3c(O)c(NC(=O)c4ccc(O)c(CC=C(C)C)c4)c(=O)oc3c2C)OC1(C)C [Novobiocin],susceptible
5,"CO[C@H]1C[C@H](O[C@H]2[C@H](C)[C@@H](O[C@@H]3O[C@H](C)C[C@H](N(C)C)[C@H]3O)[C@@H](C)C[C@@]3(CO3)C(=O)[C@H](C)[C@@H](O)[C@@H](C)[C@@H](C)OC(=O)[C@@H]2C)O[C@@H](C)[C@@H]1O [Oleandomycin, phosphate salt]",susceptible
6,Cc1ncc([N+](=O)[O-])n1CC(O)CCl (stereo not shown) [Ornidazole],susceptible
7,Cc1ccccc1C(OCCN(C)C)c1ccccc1 (stereo not shown) [Orphenadrine],susceptible
8,Cc1onc(-c2ccccc2)c1C(=O)N[C@@H]1C(=O)N2[C@@H]1SC(C)(C)[C@@H]2C(=O)O [Oxacillin],susceptible
9,CC1=C(C(=O)Nc2ccccc2)S(=O)(=O)CCO1 [Oxycarboxin],susceptible
10,NC[C@@H]1O[C@H](O[C@H]2[C@@H](O)[C@H](O[C@@H]3[C@@H](O)[C@H](N)C[C@H](N)[C@H]3O[C@H]3O[C@H](CO)[C@@H](O)[C@H](O)[C@H]3N)O[C@@H]2CO)[C@H](N)[C@@H](O)[C@@H]1O [Paromomycin],susceptible
11,O=C1C=C2C(=CCOC2O)O1 (stereo not shown) [Patulin],susceptible
12,CC1(C)S[C@@H]2[C@H](NC(=O)Cc3ccccc3)C(=O)N2[C@H]1C(=O)O [Penicillin G],susceptible
13,Oc1c(Cl)c(Cl)c(Cl)c(Cl)c1Cl [Pentachlorophenol],susceptible
14,CC(Oc1ccccc1)C(=O)N[C@@H]1C(=O)N2[C@@H]1SC(C)(C)[C@@H]2C(=O)O (stereo partly shown) [Phenethicilllin],susceptible
15,CC1=CC(=O)c2c(O)cccc2C1=O [Plumbagin],susceptible
16,O=[Te]([O-])[O-].[K+].[K+] [Potassium tellurite],susceptible
17,OC(CCN1CCCCC1)(c1ccccc1)c1ccccc1 [Pridinol],susceptible
18,Nc1ccc2cc3ccc(N)cc3nc2c1 [Proflavine],susceptible
19,CC(CN1c2ccccc2Sc2ccccc21)N(C)C (stereo not shown) [Promethazine],susceptible
20,COc1ccc(C[C@H](N)C(=O)N[C@H]2[C@@H](O)[C@H](n3cnc4c(N(C)C)ncnc43)O[C@@H]2CO)cc1 [Puromycin],susceptible
21,CO[C@H]1/C=C/O[C@@]2(C)Oc3c(C)c([O-])c4c(O)c(cc(O)c4c3C2=O)NC(=O)/C(C)=C\C=C\[C@H](C)[C@H](O)[C@@H](C)[C@@H](O)[C@@H](C)[C@H](OC(C)=O)[C@@H]1C.[Na+] [Rifamycin SV],susceptible

row,Compound,H491 susceptible to compound
1,C[n+]1cc2c3c(ccc2c2ccc4cc5c(cc4c21)OCO5)OCO3 [Sanguinarine chloride],susceptible
2,NNC(N)=O [Semicarbazide hydrochloride],susceptible
3,CN[C@@H]1[C@@H](O)[C@@H](O[C@@H]2[C@@H](O)[C@H](O[C@H]3OC(CN)=CC[C@H]3N)[C@@H](N)C[C@H]2N)OC[C@]1(C)O [Sisomicin],susceptible
4,O=[As]O [Sodium Arsenite],susceptible
5,CCCCCCCC(=O)[O-].[Na+] [Sodium Caprylate],susceptible
6,N#CO [Sodium Cyanate],susceptible
7,[Na+].[Na+].[O]=[Cr](=[O])([O-])[O][Cr](=[O])(=[O])[O-] [Sodium Dichromate],susceptible
8,[Na+].[Na+].[O]=[W](=[O])([O-])[O-] [Sodium Tungstate],susceptible
9,O=B[O-].[Na+] [Sodium metaborate],susceptible
10,[Na+].[Na+].[Na+].[O]=[V]([O-])([O-])[O-] [Sodium orthovanadate],susceptible
11,[Na+].[O-][I+3]([O-])([O-])[O-] [Sodium periodate],susceptible
12,Nc1ccc(S(=O)(=O)Nc2ccc(Cl)nn2)cc1 [Sulfachloropyridazine],susceptible
13,Nc1ccc(S(=O)(=O)Nc2ncccn2)cc1 [Sulfadiazine],susceptible
14,Cc1cc(NS(=O)(=O)c2ccc(N)cc2)no1 [Sulfamethoxazole],susceptible
15,Nc1ccc(S(N)(=O)=O)cc1 [Sulfanilamide],susceptible
16,Nc1ccc(S(=O)(=O)Nc2nccs2)cc1 [Sulfathiazole],susceptible
17,CCN(CC)C(=S)SSC(=S)N(CC)CC [Tetraethylthiuram disulfide],susceptible
18,c1ccc(-c2nn(-c3ccccc3)[n+](-c3cccc4ccccc34)n2)cc1 [Tetrazolium violet],susceptible
19,CC(=O)[O-].[Tl+] [Thallium (I) acetate],susceptible
20,CS(=O)(=O)c1ccc([C@@H](O)[C@@H](CO)NC(=O)C(Cl)Cl)cc1 [Thiamphenicol],susceptible
21,CSc1ccc2c(c1)N(CCC1CCCCN1C)c1ccccc1S2 (stereo not shown) [Thioridazine],susceptible

row,Compound,H491 susceptible to compound
1,O=C(O)c1ccccc1S [Thiosalicylate],susceptible
2,CCS(=O)(=O)CCn1c([N+](=O)[O-])cnc1C [Tinidazole],susceptible
3,NC[C@H]1O[C@H](O[C@H]2[C@H](O)[C@@H](O[C@H]3O[C@H](CO)[C@@H](O)[C@H](N)[C@H]3O)[C@H](N)C[C@@H]2N)[C@H](N)C[C@@H]1O [Tobramycin],susceptible
4,Cc1ccc(N(SC(F)(Cl)Cl)S(=O)(=O)N(C)C)cc1 [Tolylfluanid],susceptible
5,CN1CCN(CCCN2c3ccccc3Sc3ccc(C(F)(F)F)cc32)CC1 [Trifluoperazine],susceptible
6,O=c1[nH]c(=O)n([C@H]2C[C@H](O)[C@@H](CO)O2)cc1C(F)(F)F [Trifluorothymidine],susceptible
7,CO[C@H]1C[C@H](O[C@H]2[C@H](C)[C@@H](O[C@@H]3O[C@H](C)C[C@H](N(C)C)[C@H]3OC(C)=O)[C@@H](C)C[C@@]3(CO3)C(=O)[C@H](C)[C@@H](OC(C)=O)[C@@H](C)[C@@H](C)OC(=O)[C@@H]2C)O[C@@H](C)[C@@H]1OC(C)=O [Troleandomycin],susceptible
8,CC[C@H]1OC(=O)C[C@@H](O)[C@H](C)[C@@H](O[C@@H]2O[C@H](C)[C@@H](O[C@H]3C[C@@](C)(O)[C@@H](O)[C@H](C)O3)[C@H](N(C)C)[C@H]2O)[C@@H](CC=O)C[C@@H](C)C(=O)/C=C/C(C)=C/[C@@H]1CO[C@@H]1O[C@H](C)[C@@H](O)[C@@H](OC)[C@H]1OC [Tylosin],susceptible
9,CN[C@H](CC(C)C)C(=O)N[C@H]1C(=O)N[C@@H](CC(N)=O)C(=O)N[C@H]2C(=O)N[C@H]3C(=O)N[C@H](C(=O)N[C@H](C(=O)O)c4cc(O)cc(O)c4-c4cc3ccc4O)[C@H](O)c3ccc(c(Cl)c3)Oc3cc2cc(c3O[C@@H]2O[C@H](CO)[C@@H](O)[C@H](O)[C@H]2O[C@H]2C[C@](C)(N)[C@H](O)[C@H](C)O2)Oc2ccc(cc2Cl)[C@H]1O [Vancomycin],susceptible
10,O=C(O)/C=C/c1ccccc1 [trans-Cinnamic acid],susceptible
11,Acriflavine,susceptible
12,Capreomycin,susceptible
13,Neomycin,susceptible
14,Niaproof,susceptible
15,Penimepicycline,susceptible
16,Phleomycin,susceptible
17,Poly-L-lysine,susceptible
18,Polymyxin B,susceptible
19,Protamine sulfate,susceptible
20,Sodium metavanadate,susceptible
21,Spiramycin,susceptible

# Same assay, conditions: Biolog Phenotypic Microarray; at a maximum concentration of 4 ug
row,Compound,Resistance of H491 observed in wells containing compound
1,NCC[C@H](O)C(=O)N[C@@H]1C[C@H](N)[C@@H](O[C@H]2O[C@H](CN)[C@@H](O)[C@H](O)[C@H]2O)[C@H](O)[C@H]1O[C@H]1O[C@H](CO)[C@@H](O)[C@H](N)[C@H]1O [amikacin],Resistance
2,CCn1cc(C(=O)O)c(=O)c2cc(F)c(N3CCNC(C)C3)c(F)c21 (stereo not shown) [lomefloxacin],Resistance
3,CCn1cc(C(=O)O)c(=O)c2cc3c(cc21)OCO3 [oxolinic acid],Resistance
4,CN[C@@H]1[C@H](O)[C@H](NC)[C@H]2O[C@@]3(O)C(=O)C[C@@H](C)O[C@H]3O[C@@H]2[C@H]1O [spectinomycin],Resistance
5,Cc1cc(C)nc(NS(=O)(=O)c2ccc(N)cc2)n1 [sulfamethazine],Resistance
6,Polymyxin B,Resistance
7,bleomycin,Resistance
8,colistin,Resistance
